From paper PMC5863496, “Mesobuthus Venom-Derived Antimicrobial Peptides Possess Intrinsic Multifunctionality and Differential Potential as Drugs” (Frontiers in Microbiology, 2018)
Ends that are not written are not given here.

Experiments:
Assay in all cases: Inhibition-zone assay (CL)
Format in all cases: cell-based
[1] = test system: Bacillus megaterium CGMCC 1.0459; settings: BM CGMCC 1.0459, N.A. = no activity at 0.8 nmol peptide each well
Description: (§1) The antimicrobial activity of seven peptides, including MeuFSPL-1, MeuFSPL-2, Marmelittin, Melittin, Meucin-22, Marcin-22, and MeuTXKβ1, was evaluated by the inhibition-zone assay previously described in our studies (Hultmark, [1998]; Zhu et al., [2012a]; Zhu and Gao, [2014]). Temperatures used were 30 or 37°C for bacteria or 28°C for fungi. Media used were Luria-Bertani (LB) Broth (10 g tryptone, 5 g yeast extract, and 5 g NaCl in 1 l of water) or Nutrient Broth (10 g peptone, 5 g beef extract powder, and 5 g NaCl in 1 l of water) or GYM(Isp2) (4 g yeast extract, 10 g malt extract, 4 g glucose, 2 g CaCO3 in 1 l of water) for bacteria or Potato Dextrose Broth (200 g patato and 20 g glucose in 1 l of water) for fungi. To make plates, 10 μl of microbial culture (~2 × 10^6 bacterial cells or fungal spores/ml) were mixed in 6 ml of medium containing 0.8% agar and poured into Peri dishes of 9.0 cm diameter. Wells with a diameter of 2 mm were punched into the medium, filled with 2 μl of sample each well. In this assay, three different doses of peptides were applied to three independent wells in one standard bacterial plate. After incubation overnight, inhibition zones were measured and used to calculate lethal concentrations (CL), a concentration just sufficient to inhibit bacterial growth (Hultmark, [1998]; Gao et al., [2009]). CL values are calculated from a plot of d^2 against log n, where d is the diameter (in cm) and n is the amount of sample applied in the well (in nmol). The plot is linear and thus CL can be calculated from the slope (k) and the intercept (m) of this plot. The formula used here is CL = 2.93/ak10^m/k, where “a” is the thickness of the bacterial plate and “CL” is in μM.

[2] = test system: Bacillus subtilis CGMCC 1.2428; settings: BS CGMCC 1.2428, N.A. = no activity at 0.8 nmol peptide each well
Description: as §1

[3] = test system: Escherichia coli ATCC 25922; settings: EC ATCC 25922, N.A. = no activity at 0.8 nmol peptide each well
Description: as §1

[4] = test system: Escherichia coli Am. J16c; settings: EC Am. J16c, N.A. = no activity at 0.8 nmol peptide each well
Description: as §1

[5] = test system: Escherichia coli Am. J23a; settings: EC Am. J23a, N.A. = no activity at 0.8 nmol peptide each well
Description: as §1

[6] = test system: Escherichia coli CIP. J14b; settings: EC CIP. J14b, N.A. = no activity at 0.8 nmol peptide each well
Description: as §1

Escherichia coli D. G2b = settings: EC D. G2b, N.A. = no activity at 0.8 nmol peptide each well
Description: as §1

[7] = test system: Micrococcus luteus CGMCC 1.0290; settings: ML CGMCC 1.0290, N.A. = no activity at 0.8 nmol peptide each well
Description: as §1

[8] = test system: Staphylococcus aureus J685; settings: SA J685, N.A. = no activity at 0.8 nmol peptide each well
Description: as §1

[9] = test system: Staphylococcus aureus J698; settings: SA J698, N.A. = no activity at 0.8 nmol peptide each well
Description: as §1

[10] = test system: Staphylococcus aureus J700; settings: SA J700, N.A. = no activity at 0.8 nmol peptide each well
Description: as §1

[11] = test system: Staphylococcus warneri ATCC 1.2824; settings: SW ATCC 1.2824, N.A. = no activity at 0.8 nmol peptide each well
Description: as §1

[12] = test system: Stenotrophomonas maltophilia CGMCC 1.1788; settings: SMAL CGMCC 1.1788, N.A. = no activity at 0.8 nmol peptide each well
Description: as §1

[13] = test system: Streptococcus mutans ATCC 1.2499; settings: SM ATCC 1.2499, N.A. = no activity at 0.8 nmol peptide each well
Description: as §1

[14] = test system: Streptococcus salivarius ATCC 1.2498; settings: SSAL ATCC 1.2498, N.A. = no activity at 0.8 nmol peptide each well
Description: as §1

[15] = test system: Streptococcus sanguinis ATCC 1.2497; settings: SSAN ATCC 1.2497, N.A. = no activity at 0.8 nmol peptide each well
Description: as §1

[16] = test system: methicillin-resistant Staphylococcus aureus P1374; settings: MRSA P1374, N.A. = no activity at 0.8 nmol peptide each well
Description: as §1

[17] = test system: methicillin-resistant Staphylococcus aureus P1386; settings: MRSA P1386, N.A. = no activity at 0.8 nmol peptide each well
Description: as §1

[18] = test system: methicillin-resistant coagulase-negative Staphylococcus P1369; settings: MRCNS P1369, N.A. = no activity at 0.8 nmol peptide each well
Description: as §1

[19] = test system: methicillin-sensitive Staphylococcus aureus CGMCC 1.89; settings: MSSA CGMCC 1.89, N.A. = no activity at 0.8 nmol peptide each well
Description: as §1

[20] = test system: penicillin-resistant Staphylococcus aureus P1383; settings: PRSA P1383; inhibition-zone assay; N.A. = no activity at 0.8 nmol peptide each well
Description: as §1

[21] = test system: penicillin-resistant Staphylococcus epidermidis P1389; settings: PRSE P1389, N.A. = no activity at 0.8 nmol peptide each well
Description: as §1

[22] = test system: penicillin-sensitive Staphylococcus epidermidis P1111; settings: PSSE P1111, N.A. = no activity at 0.8 nmol peptide each well
Description: as §1

Substance | Lethal concentration (CL) [1] [µM] | Lethal concentration (CL) [2] [µM] | Lethal concentration (CL) [3] [µM] | Lethal concentration (CL) [4] [µM] | Lethal concentration (CL) [5] [µM] | Lethal concentration (CL) [6] [µM] | Lethal concentration (CL) (Escherichia coli D. G2b) [µM] | Lethal concentration (CL) [7] [µM] | Lethal concentration (CL) [8] [µM] | Lethal concentration (CL) [9] [µM] | Lethal concentration (CL) [10] [µM] | Lethal concentration (CL) [11] [µM] | Lethal concentration (CL) [12] [µM] | Lethal concentration (CL) [13] [µM] | Lethal concentration (CL) [14] [µM] | Lethal concentration (CL) [15] [µM] | Lethal concentration (CL) [16] [µM] | Lethal concentration (CL) [17] [µM] | Lethal concentration (CL) [18] [µM] | Lethal concentration (CL) [19] [µM] | also measured
FFGHLFKLATKIIPSLFQRKKE [MUC-22] | 3.72 | 1.86 | 7.95 | 7.49 | 7.36 | 11.65 | 9.93 | 2.71 | 2.66 | 2.66 | 2.66 | 3.76 | 3.79 | 2.39 | 4.22 | 3.37 | 0.87 | 1.88 | 2.21 | 1.35 | Lethal concentration (CL) [20]: 0.87 µM; Lethal concentration (CL) [21]: 0.56 µM; Lethal concentration (CL) [22]: 1.61 µM
FLFSLIPSAISGLISAFKGRRKRDLN-NH2 [MarMEL] | 2.86 | 3.13 | 6.41 | 7.75 | 4.69 | 8.41 | 6.24 | 1.85 | 8.41 | 6.24 | 10.86 | 0.18 | 4.14 | 2.85 | 4.70 | 4.70 | 2.60 | 8.11 | 3.01 | 4.87 | Lethal concentration (CL) [20]: 2.35 µM; Lethal concentration (CL) [21]: 3.12 µM; Lethal concentration (CL) [22]: 4.24 µM
